Measured values from US10189816B2, “Substituted pyridines as inhibitors of human immunodeficiency virus replication” (priority 2015, dated 2019).

system: NL-RLuc virus; assay: Inhibition of HIV replication (NL-RLuc reporter virus in MT-2 cells, luciferase readout); type: cell-based; conditions: Human immunodeficiency virus 1, MT2, 120 h, read-out: Activity
Text: Inhibition of HIV replication: A recombinant NL-RLuc proviral clone was constructed in which a section of the nef gene from NL4-3 was replaced with the Renilla Luciferase gene. This virus is fully infectious and can undergo multiple cycles of replication in cell culture. In addition, the luciferous reporter provides a simple and easy method for quantitating the extent of virus growth and consequently, the antiviral activity of test compounds. The plasmid pNLRLuc contains the proviral NL-Rluc DNA cloned into pUC18 at the PvuII site. The NL-RLuc virus was prepared by transfection of 293T cells with the plasmid pNLRLuc. Transfections were performed using the LipofectAMINE PLUS kit from Invitrogen (Carlsbad, Calif.) according to the manufacturer and the virus generated was titered in MT-2 cells. For susceptibility analyses, the titrated virus was used to infect MT-2 cells in the presence of compound, and after 5 days of incubation, cells were processed and quantitated for virus growth by the amount of expressed luciferase. Assay media was RPMI 1640 supplemented with 10% heat inactivated fetal bovine serum (FBS), 100 units/ml penicillin G/100 units/ml streptomycin, 10 mM HEPES buffer pH 7.55 and 2 mM L-glutamine. The results from at least 2 experiments were used to calculate the EC50 values. Luciferase was quantitated using the Dual Luciferase kit from Promega (Madison, Wis.). Susceptibility of viruses to compounds was determined by incubation in the presence of serial dilutions of the compound. The 50% effective concentration (EC50) was calculated by using the exponential form of the median effect equation where (Fa)=1/[1+(ED50/drug conc.)^m] (Johnson V A, Byington R T. Infectivity Assay. In Techniques in HIV Research. ed. Aldovini A, Walker B D. 71-76. New York: Stockton Press.1990). Activity equal to A refers to a compound having an EC50≤100 nM, while B and C denote compounds having an EC50 between 100 nM and 1 uM (B) or >1 uM (C).

Row | SMILES | EC50 [µM]
1 | Cc1nc(C)c([C@H](OC(C)(C)C)C(=O)O)c(N2CCC(C)(C)CC2)c1-c1ccc2c(c1)CCN(Cc1cccc(Cl)c1Cl)C2 [Compound 40, (S)-2-(tert-butoxy)-2-(5-(2-(2,3-dichlorobenzyl)-1,2,3,4-tetrahydroisoquinolin-6-yl)-4-(4,4-dimethylpiperidin-1-yl)-2,6-dimethylpyridin-3-yl)acetic acid] | < 0.1
2 | Cc1nc(C)c([C@H](OC(C)(C)C)C(=O)O)c(N2CCC(C)(C)CC2)c1-c1ccc2c(c1)CCN(Cc1ccc(F)c(F)c1F)C2 [Compound 41, (S)-2-(tert-butoxy)-2-(4-(4,4-dimethylpiperidin-1-yl)-2,6-dimethyl-5-(2-(2,3,4-trifluorobenzyl)-1,2,3,4-tetrahydroisoquinolin-6-yl)pyridin-3-yl)acetic acid] | < 0.1
3 | Cc1nc(C)c([C@H](OC(C)(C)C)C(=O)O)c(N2CCC(C)(C)CC2)c1-c1ccc2c(c1)CCN(Cc1cc(Cl)ccc1F)C2 [Compound 42, (S)-2-(tert-butoxy)-2-(5-(2-(5-chloro-2-fluorobenzyl)-1,2,3,4-tetrahydroisoquinolin-6-yl)-4-(4,4-dimethylpiperidin-1-yl)-2,6-dimethylpyridin-3-yl)acetic acid] | < 0.1
4 | Cc1nc(C)c([C@H](OC(C)(C)C)C(=O)O)c(N2CCC(C)(C)CC2)c1-c1ccc2c(c1)CCN(Cc1cc(F)cc(Cl)c1)C2 [Compound 43, (S)-2-(tert-butoxy)-2-(5-(2-(3-chloro-5-fluorobenzyl)-1,2,3,4-tetrahydroisoquinolin-6-yl)-4-(4,4-dimethylpiperidin-1-yl)-2,6-dimethylpyridin-3-yl)acetic acid] | < 0.1
5 | Cc1nc(C)c([C@H](OC(C)(C)C)C(=O)O)c(N2CCC(C)(C)CC2)c1-c1ccc2c(c1)CCN(Cc1c(F)ccc(F)c1F)C2 [Compound 44, (S)-2-(tert-butoxy)-2-(4-(4,4-dimethylpiperidin-1-yl)-2,6-dimethyl-5-(2-(2,3,6-trifluorobenzyl)-1,2,3,4-tetrahydroisoquinolin-6-yl)pyridin-3-yl)acetic acid] | < 0.1
6 | Cc1nc(C)c([C@H](OC(C)(C)C)C(=O)O)c(N2CCC(C)(C)CC2)c1-c1ccc2c(c1)CCN(Cc1cc(F)ccc1Cl)C2 [Compound 45, (S)-2-(tert-butoxy)-2-(5-(2-(2-chloro-5-fluorobenzyl)-1,2,3,4-tetrahydroisoquinolin-6-yl)-4-(4,4-dimethylpiperidin-1-yl)-2,6-dimethylpyridin-3-yl)acetic acid] | < 0.1
7 | Cc1cc(F)cc(CN2CCc3cc(-c4c(C)nc(C)c([C@H](OC(C)(C)C)C(=O)O)c4N4CCC(C)(C)CC4)ccc3C2)c1 [Compound 46, (S)-2-(tert-butoxy)-2-(4-(4,4-dimethylpiperidin-1-yl)-5-(2-(3-fluoro-5-methylbenzyl)-1,2,3,4-tetrahydroisoquinolin-6-yl)-2,6-dimethylpyridin-3-yl)acetic acid] | < 0.1
8 | Cc1ccc(F)cc1CN1CCc2cc(-c3c(C)nc(C)c([C@H](OC(C)(C)C)C(=O)O)c3N3CCC(C)(C)CC3)ccc2C1 [Compound 47, (S)-2-(tert-butoxy)-2-(4-(4,4-dimethylpiperidin-1-yl)-5-(2-(5-fluoro-2-methylbenzyl)-1,2,3,4-tetrahydroisoquinolin-6-yl)-2,6-dimethylpyridin-3-yl)acetic acid] | < 0.1
9 | Cc1ccc(F)c(CN2CCc3cc(-c4c(C)nc(C)c([C@H](OC(C)(C)C)C(=O)O)c4N4CCC(C)(C)CC4)ccc3C2)c1F [Compound 48, (S)-2-(tert-butoxy)-2-(5-(2-(2,6-difluoro-3-methylbenzyl)-1,2,3,4-tetrahydroisoquinolin-6-yl)-4-(4,4-dimethylpiperidin-1-yl)-2,6-dimethylpyridin-3-yl)acetic acid] | < 0.1

same assay, conditions: Human immunodeficiency virus 1, MT2, 120 h, read-out: EC50 μM

Row | SMILES | EC50 [µM]
10 | Cc1nc(C)c([C@H](OC(C)(C)C)C(=O)O)c(N2CCC(C)(C)CC2)c1-c1ccc2c(c1)CCN(Cc1cc(F)ccc1Cl)C2 [Compound 45, (S)-2-(tert-butoxy)-2-(5-(2-(2-chloro-5-fluorobenzyl)-1,2,3,4-tetrahydroisoquinolin-6-yl)-4-(4,4-dimethylpiperidin-1-yl)-2,6-dimethylpyridin-3-yl)acetic acid] | 0.003
